According to ChEMBL document CHEMBL1201862, “PubChem BioAssay data set” (2004):
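Grown in 96-well plates, cells were treated for 48 hours with each compound at five concentrations. Insufficient inhibition: endpoint recorded as highest concentration tested. Abbreviation: GI50, concentration required for 50% inhibition of growth.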 The source made the active and inactive calls. Rule as the data show it: active = GI50 up to about 1.1 µM and inactive = higher.

Experiments:
Assay in all cases: NCI anticancer screen, dose series, 48 h
[1] = test system: SK-MEL-2
[2] = test system: SK-OV-3
[3] = test system: NCI-H460
[4] = test system: TK-10
[5] = test system: UO-31
[6] = test system: U-251
[7] = test system: OVCAR-4
[8] = test system: A498
[9] = test system: MCF7
[10] = test system: MOLT-4
[11] = test system: A549
[12] = test system: MDA-N
[13] = test system: CAKI-1
[14] = test system: HCC 2998
[15] = test system: RPMI-8226
[16] = test system: SF-268

Row | Compound | GI50 [1] | GI50 [2] | GI50 [3] | GI50 [4] | GI50 [5] | GI50 [6] | GI50 [7] | GI50 [8] | GI50 [9] | GI50 [10] | GI50 [11] | GI50 [12] | GI50 [13] | GI50 [14] | GI50 [15] | GI50 [16]
1 | CCCCOCn1c(=O)[nH]c(=O)c2ccccc21 | 91.8 µM (inactive) | > 100 µM (inactive) | 88.1 µM (inactive) | > 100 µM (inactive) | 13.1 µM (inactive) | > 100 µM (inactive) | 35.7 µM (inactive) | > 100 µM (inactive) | 68.9 µM (inactive) | > 100 µM (inactive) | > 100 µM (inactive) | > 100 µM (inactive) | > 100 µM (inactive) | – | – | –
2 | C[N+](C)(C)CC1CCCc2ccccc2C1=O (configuration not stated) | 10.5 µM (inactive) | 20.3 µM (inactive) | 22.1 µM (inactive) | 21 µM (inactive) | 16.9 µM (inactive) | 6.71 µM (inactive) | 6.92 µM (inactive) | 14 µM (inactive) | 2.04 µM (inactive) | 2.48 µM (inactive) | 4.06 µM (inactive) | – | 4.71 µM (inactive) | 20.6 µM (inactive) | 0.265 µM (active) | 22 µM (inactive)
3 | NNC(=O)c1cc(=O)[nH][nH]1 | > 100 µM (inactive) | > 100 µM (inactive) | > 100 µM (inactive) | > 100 µM (inactive) | > 100 µM (inactive) | > 100 µM (inactive) | > 100 µM (inactive) | – | > 100 µM (inactive) | > 100 µM (inactive) | > 100 µM (inactive) | > 100 µM (inactive) | > 100 µM (inactive) | – | > 100 µM (inactive) | > 100 µM (inactive)
4 | COc1ccc(C2C3=CONC3CC3CCCCC32)cc1 (configuration not stated) | 33.8 µM (inactive) | – | 33.8 µM (inactive) | > 100 µM (inactive) | 38 µM (inactive) | 46 µM (inactive) | 50.4 µM (inactive) | – | 12.8 µM (inactive) | 18.9 µM (inactive) | 33.8 µM (inactive) | > 10 µM (inactive) | > 100 µM (inactive) | 18.5 µM (inactive) | 28.8 µM (inactive) | 79.4 µM (inactive)
5 | O=S(=O)(O)c1cc(/N=N/c2c(O)ccc3ccccc23)c2c(S(=O)(=O)O)cccc2c1 | > 100 µM (inactive) | > 100 µM (inactive) | > 100 µM (inactive) | > 100 µM (inactive) | > 100 µM (inactive) | > 100 µM (inactive) | > 100 µM (inactive) | – | > 100 µM (inactive) | > 100 µM (inactive) | > 100 µM (inactive) | – | > 100 µM (inactive) | > 100 µM (inactive) | > 100 µM (inactive) | > 100 µM (inactive)
6 | CCN1CN(c2ccccc2)C2(CCN(CCCSc3ccc(F)cc3)CC2)C1=O | – | 15.8 µM (inactive) | – | 12.7 µM (inactive) | 5.97 µM (inactive) | > 10 µM (inactive) | – | – | 3.48 µM (inactive) | 4.88 µM (inactive) | 6.12 µM (inactive) | 11.7 µM (inactive) | 12 µM (inactive) | – | 10.1 µM (inactive) | 13.9 µM (inactive)
7 | CCC(NC(C)c1ccccc1)C(=O)c1ccc(OCc2ccccc2)c(OCc2ccccc2)c1 (configuration not stated) | – | > 100 µM (inactive) | > 100 µM (inactive) | > 100 µM (inactive) | > 100 µM (inactive) | > 100 µM (inactive) | > 100 µM (inactive) | – | > 100 µM (inactive) | – | > 100 µM (inactive) | > 100 µM (inactive) | > 100 µM (inactive) | > 100 µM (inactive) | > 100 µM (inactive) | > 100 µM (inactive)
8 | O=C(/C=C/c1ccccc1)CSc1nc[nH]n1 | > 100 µM (inactive) | > 100 µM (inactive) | 79.4 µM (inactive) | > 100 µM (inactive) | > 100 µM (inactive) | 37.1 µM (inactive) | > 100 µM (inactive) | – | 36.4 µM (inactive) | 63.2 µM (inactive) | > 100 µM (inactive) | > 100 µM (inactive) | > 100 µM (inactive) | > 100 µM (inactive) | 35.1 µM (inactive) | > 100 µM (inactive)
9 | Nc1nncc2[nH]nnc12 | > 100 µM (inactive) | – | > 100 µM (inactive) | > 100 µM (inactive) | > 100 µM (inactive) | > 100 µM (inactive) | – | > 100 µM (inactive) | > 100 µM (inactive) | 17.4 µM (inactive) | > 100 µM (inactive) | > 100 µM (inactive) | > 100 µM (inactive) | – | > 100 µM (inactive) | > 100 µM (inactive)
10 | O[C@H]1[C@H](O)[C@@H](O)[C@H](O)[C@@H](O)[C@H]1O [INOSITOL] | > 1000 µM (inactive) | > 1000 µM (inactive) | > 1000 µM (inactive) | > 1000 µM (inactive) | > 1000 µM (inactive) | > 1000 µM (inactive) | > 1000 µM (inactive) | > 1000 µM (inactive) | > 1000 µM (inactive) | 154 µM (inactive) | > 1000 µM (inactive) | – | – | > 1000 µM (inactive) | > 1000 µM (inactive) | > 1000 µM (inactive)
11 | O=C(/C=C/c1ccc(Oc2cc(C(=O)/C=C/c3ccc(O)cc3)c(O)cc2O)cc1)c1ccc(O)cc1O [RHUSCHALCONE II] | 7.6 µM (inactive) | 3.17 µM (inactive) | 7.89 µM (inactive) | 3.07 µM (inactive) | 6.3 µM (inactive) | 3.89 µM (inactive) | 4.98 µM (inactive) | 2.65 µM (inactive) | 4.26 µM (inactive) | 4.09 µM (inactive) | 15.5 µM (inactive) | – | 4.14 µM (inactive) | – | 2.86 µM (inactive) | 4.83 µM (inactive)
12 | CCN(CC)CCN1CCN=C2c3cc(OC)ccc3Nc3c([N+](=O)[O-])ccc1c32 | – | 2.52 µM (inactive) | – | 2.8 µM (inactive) | – | – | 1.07 µM (active) | – | 0.551 µM (active) | 0.288 µM (active) | 1.24 µM (inactive) | 1.04 µM (active) | 1.93 µM (inactive) | 0.555 µM (active) | 0.64 µM (active) | 0.501 µM (active)
13 | COC(=O)C1=C(C(=O)OC)SC(=C2SC3=C(SC(=C4SCCS4)S3)S2)S1 | > 100 µM (inactive) | > 100 µM (inactive) | – | > 100 µM (inactive) | > 100 µM (inactive) | 93.1 µM (inactive) | – | > 100 µM (inactive) | > 100 µM (inactive) | > 100 µM (inactive) | > 100 µM (inactive) | > 100 µM (inactive) | > 100 µM (inactive) | – | > 100 µM (inactive) | > 100 µM (inactive)
14 | CC(=O)c1c(O)ccc2c1c1c(n2C)C(=O)c2ccccc2C1=O | > 100 µM (inactive) | 2.84 µM (inactive) | 3.21 µM (inactive) | 3.47 µM (inactive) | – | 4.63 µM (inactive) | – | 2.84 µM (inactive) | 1.69 µM (inactive) | 4.42 µM (inactive) | 5.66 µM (inactive) | – | 5.24 µM (inactive) | 0.0114 µM (active) | 1.46 µM (inactive) | 1.86 µM (inactive)
15 | COc1ccc(C(SC2C(O)C(CO)OC2n2ccc(=O)[nH]c2=O)(c2ccccc2)c2ccc(OC)cc2)cc1 (configuration not stated) | 15.1 µM (inactive) | 13.7 µM (inactive) | 10.9 µM (inactive) | 25.4 µM (inactive) | 16.6 µM (inactive) | 13.9 µM (inactive) | 19.7 µM (inactive) | – | 17.1 µM (inactive) | 26.9 µM (inactive) | 16.4 µM (inactive) | 9.66 µM (inactive) | 30.4 µM (inactive) | 14.8 µM (inactive) | 32.8 µM (inactive) | 17.9 µM (inactive)
